Patent US8853260B2, “Formulations of pharmacological agents, methods for the preparation thereof and methods for the use thereof” (priority 1997, dated 2014)

Assays:
[1] = Blood kinetics following multiple intravenous dose levels of Capxol; type: in vivo, rat
Protocol: Blood was collected from the tail vein and the AUC0-24 was calculated. At 24 hours, blood samples were collected; extracted, and the extract injected on HPLC to determine the level of parent compound in the blood.

[2] = test system: patients with breast cancer, non-Hodgkin's lymphoma or ovarian cancer; conditions: cited from earlier work
[3] = test system: ovarian cancer and breast cancer; conditions: 250 mg/m^2/21 days; cited from earlier work

**Q.** What does the source list for `CC(=O)O[C@H]1C(=O)[C@@]2(C)[C@H]([C@H](OC(=O)c3ccccc3)[C@]3(O)C[C@H](OC(=O)[C@H](O)[C@@H](NC(=O)c4ccccc4)c4ccccc4)C(C)=C1C3(C)C)[C@]1(OC(C)=O)CO[C@@H]1C[C@@H]2O` [paclitaxel]?
**A.** level of parent compound in blood after 24 hours ([1]; 9 mg/kg dose, given as Capxol): 0.04 ppm; increase of parent compound level after 24 hours, factor ([1]; from the 9 mg/kg dose to the 148 mg/kg dose): 8.5; MTD ([2]; 24 hour infusion, combined with cyclophosphamide 5,625 mg/m^2 and cisplatin 165 mg/m^2, AHPCS): 775 mg/m^2; partial response ([2]; patients with breast cancer, combination with cyclophosphamide and cisplatin): 54%; objective response rate [3]: 35.9%
